Laboratory results as given in US20120115905A1, “Nitrone, Nitroso, and Nitroxide Spintraps and Spin Labels and Their Hydroxylamines” (priority 2010, published 2012).
Entries after “also recorded” stand apart in the source; their conditions may differ.

Legend:
humans = details: human clinical trials, even at several grams per day doses; cited from earlier work
animal models = details: cited from earlier work
cyclic vomiting syndrome = assay: Treatment of cyclic vomiting syndrome; assay type: in vivo, human; details: the above treatment (10 mg TEMPOL plus 100 mg ascorbic acid orally once a day)
trigeminal neuralgia = assay: Treatment of trigeminal neuralgia in a patient; assay type: in vivo, human; details: for trigeminal neuralgia (summary statement): humans, route and dose not stated
Protocol: (§1) The reduced form of TEMPOL (TEMPOL-H) or equivalent pharmacologically-active spin label/spintrap is prepared by mixing together 2 grams of TEMPOL or a pharmacologically effective amount of another spin-label or spin trap such as methynitrosopropane, 20 grams of ascorbic acid or other reducing compound in 100 ml of distilled water. The formulation is used as is. The solution is slightly-bitter. The formulation can be administered diluted in a suitable liquid such as juice, tea, or coffee. An equivalent dry form as 10 mg of tempol mixed with 100 mg of acsorbic acid or equivalent reducing substance can be easily prepared in capsule or tablet form.
(§2) One-half ml of the above solution, comprising 10 mg TEMPOL plus 100 mg ascorbic acid, was administered orally once a day to a 50 kg person with a long history for fibrocystic disease of breast so severe that surgeons had recommended mastectomy. The same person had also been previously-diagnoses with severe trigeminal neuralgia.
(§3) Long-term relief can be achieved, but the symptoms eventually reappear on cessation of treatment for a few weeks.

[1] = tested on: premenstrual dysphoric disorder; assay: Treatment of premenstrual dysphoric disorder; assay type: in vivo, human; details: for premenstrual dysphoric syndrome and its associated comorbid symptoms (summary statement): humans, route and dose not stated
Protocol: as §1, §2

influenza = assay: Amelioration of influenza symptomology; assay type: in vivo, human; details: for influenza (summary statement): humans, route and dose not stated
[2] = tested on: gingivitis and peridontitis; assay: Treatment of gingivitis and peridontitis; assay type: in vivo, human; details: for peridontitis and gingivitis (summary statement): humans, route and dose not stated
[3] = tested on: fibrocystic disease of breast; assay: Treatment of fibrocystic disease of breast in a patient; assay type: in vivo, human
Protocol: as §1, §2, §3

herpes zoster lesions = assay: Treatment of herpes zoster lesions; assay type: in vivo, human; details: for herpes zoster lesions (summary statement): humans, route and dose not stated
[4] = tested on: peripheral vascular disease; assay: Treatment of peripheral vascular disease; assay type: in vivo, human; details: the above treatment (10 mg TEMPOL plus 100 mg ascorbic acid orally once a day)
post-herpetic neuropathy = assay: Treatment of post-herpetic neuropathy / neuralgia; assay type: in vivo, human; details: for post-herpetic neuralgia (summary statement): humans, route and dose not stated
Protocol: as §1
One-half ml of the above solution was orally-administered daily to a middle-aged person with chronic post-herpetic neuropathy of the feet, peridontitis, and gingivitis.

rectal hemorrhoids = assay: Treatment of rectal hemorrhoids; assay type: in vivo, human; details: for rectal hemorrhoids (summary statement): humans, route and dose not stated
Protocol: Boil until methycellulose dissolves (5-10 minutes)
Alternative is I million-dalton MW 1% propylcellulose, which dissolves overnight without boiling.
Add 5 grams TEMPOL with stirring

rhinositis = assay: Local nasal treatment of rhinositis; assay type: in vivo, human; details: 0.1 ml applied locally to the nasal cavity
migraine headache = assay: Treatment of migraine headache; assay type: in vivo, human; details: for migraine headache (summary statement): humans, route and dose not stated
Protocol: as §1, §2

[5] = 10 mg TEMPOL plus 100 mg ascorbic acid orally once a day, same patient
[6] = one-half ml of solution orally daily, middle-aged male
[7] = topical application once a day to the affected area

CC(C)(C)[N+]([O-])=Cc1ccc(S(=O)(=O)[O-])cc1S(=O)(=O)[O-].[Na+].[Na+] [NXY-059, disulfonyl PBN]
neuroprotective efficacy in humans (humans): not in humans; also recorded: perpetual failure
neuroprotective efficacy in animal models (animal models): effective in animal models

CC1(C)CC(O)CC(C)(C)N1O [TEMPOL-H]
cyclic vomiting syndrome (cyclic vomiting syndrome): prevents, controls, and ameliorates
effect on long-standing trigeminal neuralgia (trigeminal neuralgia; [5]): alleviated and prevented
trigeminal neuralgia (summary statement) (trigeminal neuralgia): ameliorate
symptoms of anxiety/depression and mood swings outside the premenstrual time period [1, 5]: Efficacy was observed
symptoms of premenstrual dysphoric disorder including comorbidity [1, 5]: alleviates and prevents
premenstrual dysphoric syndrome and its associated comorbid symptoms (summary statement) [1]: ameliorate
influenza (summary statement) (influenza): ameliorate
symptoms of influenza (influenza; one-half ml orally once or twice daily): significantly-ameliorates
peridontitis and gingivitis (summary statement) [2]: ameliorate
symptomatic relief of peridontitis and gingivitis [2, 6]: Symptomatic relief of all of these was experienced within one week
gingivitis and peridontitis, topical application ([2]; topical application of the reduced TEMPOL solution): also effective
time until first results appeared ([3]; 10 mg TEMPOL plus 100 mg ascorbic acid orally once a day, one patient): 1-2 weeks
regression / shrinkage of the breast cysts ([3]; 10 mg TEMPOL plus 100 mg ascorbic acid orally once a day, one patient, mammographic imaging and digital palpation): almost complete regression; also recorded: shrinkage of the breast cysts
breast cysts upon resumption of treatment ([3]; resumption after cessation of treatment for a few weeks, same oral dose): again drastically shrink
herpes zoster lesions (summary statement) (herpes zoster lesions): prevent and treat
herpes zoster lesions, topical application (herpes zoster lesions; [7]): also effective
peripheral vascular disease [4]: controls, and ameliorates
post-herpetic neuralgia (summary statement) (post-herpetic neuropathy): prevent and treat
symptomatic relief of chronic post-herpetic neuropathy of the feet (post-herpetic neuropathy; [6]): Symptomatic relief of all of these was experienced within one week
post-herpetic neuralgia, topical application (post-herpetic neuropathy; [7]): also effective
rectal hemorrhoids (summary statement) (rectal hemorrhoids): ameliorate
rhinositis (rhinositis): ameliorates rhinositis
migraine headache (summary statement) (migraine headache): prevent and treat
migraine headache prevention and symptoms (migraine headache; the above treatment (10 mg TEMPOL plus 100 mg ascorbic acid orally once a day)): both prevents migraine headache and ameliorates the symptoms

CC1(C)CC(O)CC(C)(C)N1[O] [TEMPOL, 4-hydroxy-2,2,6,6-tetramethylpiperidin-1-yloxy]
trigeminal neuralgia (summary statement) (trigeminal neuralgia): ameliorate
premenstrual dysphoric syndrome and its associated comorbid symptoms (summary statement) [1]: ameliorate
influenza (summary statement) (influenza): ameliorate
gingivitis and peridontitis, local intraoral treatment ([2]; 0.5 ml of 5% TEMPOL liquid or gel applied to the affected gums for one to three days): reducing tenderness and bleeding
peridontitis and gingivitis (summary statement) [2]: ameliorate
efficacy of Tempol itself (unreduced) ([3]; same doses as the reduced formulation): effective at the same doses
herpes zoster lesions (summary statement) (herpes zoster lesions): prevent and treat
post-herpetic neuralgia (summary statement) (post-herpetic neuropathy): prevent and treat
symptoms of rectal hemorrhoids (rectal hemorrhoids; 0.2 ml of 5% solution (methyl cellulose gel) transrectally for one to three days): ameliorates the symptoms of rectal hemorrhoids, especially pain, swelling, and bleeding
rectal hemorrhoids (summary statement) (rectal hemorrhoids): ameliorate
migraine headache (summary statement) (migraine headache): prevent and treat
